Target: T1, BH3 deletion human Bak mutant protein (ΔBH3) (Homo sapiens, UniProt Q16611, DEL74-90)
T1 construct: His6; made in house; host or cells: Escherichia coli BL21 DE3
Experiment: Isothermal titration calorimetry (ITC), BH3 deletion mutant
Format: binding
Experimental: The binding affinity of BKA-073 with Bak protein was examined by isothermal titration calorimetry (ITC) assay as described, [28]. ITC assay was carried out in the auto-iTC200 instrument (MicroCal, GE) at 25 °C. Purified recombinant human or mouse Bak protein was loaded into a 96 Deepwell PP plate. BKA-073 compound was then titrated stepwise into the protein for a total of 16 injections. Reference power and initial delay were set as 5 µCal/sec and 60s, respectively. A string speed of 750 rpm was used for the ITC measurements. The binding constant (Kd) value was determined by fitting the titration curve to a one-site binding mode, using the Origin software provided by the manufacturer.
To confirm the binding of BKA-073 with Bak, we first conducted a competitive fluorescence polarization (FP) assay using purified human Bak protein, fluorescent Bak BH3 domain peptide, and BKA-073 as described, [37]-[40]. […] There are multiple amino acid differences in the BH3 domains between Bak and other Bcl2 family members, which helps to explain why BKA-073 only binds to Bak but not to other Bcl2 family members (i.e. Bax, Bcl2, Bcl-XL, Bcl-w and Mcl-1). In addition to the FP assay, isothermal titration calorimetry (ITC) was also employed to measure Bak/BKA-073 binding. […] In addition to human Bak/BKA-073 binding, we measured mouse Bak/BKA-073 binding using ITC. […]

T1 sequence (Q16611 with tags, fused parts or gaps DEL74-90 limits assumed): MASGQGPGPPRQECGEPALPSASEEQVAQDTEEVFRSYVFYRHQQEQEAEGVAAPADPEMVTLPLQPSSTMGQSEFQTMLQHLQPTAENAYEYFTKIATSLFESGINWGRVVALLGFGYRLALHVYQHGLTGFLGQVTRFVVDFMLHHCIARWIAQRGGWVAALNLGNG

## COc1ccc2nc3ccccc3c(NCCNCC(C)O)c2c1 (stereo not shown) [BKA-073]
  binding to ΔBH3 Bak mutant: failed to bind

From publication PMC8344021, “Discovery of Small Molecule Bak Activator for Lung Cancer Therapy” (Theranostics, 2021)
